From paper PMC12250785, “Synthesis of Novel 7-Phenyl-2,3-Dihydropyrrolo[2,1-b]Quinazolin-9(1H)-ones as Cholinesterase Inhibitors Targeting Alzheimer’s Disease Through Suzuki–Miyaura Cross-Coupling Reaction” (Molecules, 2025) come the findings set out here.

One series has as its target BChE (E.C. 3.1.1.8) (Equus caballus, UniProt P81908). Briefly: biochemical. The conditions noted are these: BChE from horse serum; Ellman method; means ± SD of triplicate independent experiments. A general note: In Ellman's method for cholinesterases, released thiocholine reacts with DTNB.
A further series addresses AChE (E.C. 3.1.1.7) (Electrophorus electricus, UniProt O42275). Nature of the series: biochemical. The conditions noted are these: for IC50: AChE from electric eel, Ellman method, means ± SD of triplicate independent experiments; for Selectivity (BChE/AChE): BChE IC50/AChE IC50. How it is done:
The results are presented as IC50 values.
The total volume of the reaction was 200 μL, consisting of 2 μL of sample, 138 μL of Tris-HCl buffer solution containing acetylcholinesterase (final concentration of 0.03 U/mL), and a control consisting of Tris-HCl buffer solution without the enzyme. The reaction was incubated at room temperature for 10 min. Following this, 20 μL of […] (5 mM) was added, and the reaction was conducted at 37 °C for an additional 10 min.

A short description of series [1]: Solubility in common organic solvents. The class given is physicochemical.

In general, IC50 refers to the concentration at which inhibition is half-maximal. Lower therefore signals higher potency.

AChE (E.C. 3.1.1.7), sequence (O42275 24-633): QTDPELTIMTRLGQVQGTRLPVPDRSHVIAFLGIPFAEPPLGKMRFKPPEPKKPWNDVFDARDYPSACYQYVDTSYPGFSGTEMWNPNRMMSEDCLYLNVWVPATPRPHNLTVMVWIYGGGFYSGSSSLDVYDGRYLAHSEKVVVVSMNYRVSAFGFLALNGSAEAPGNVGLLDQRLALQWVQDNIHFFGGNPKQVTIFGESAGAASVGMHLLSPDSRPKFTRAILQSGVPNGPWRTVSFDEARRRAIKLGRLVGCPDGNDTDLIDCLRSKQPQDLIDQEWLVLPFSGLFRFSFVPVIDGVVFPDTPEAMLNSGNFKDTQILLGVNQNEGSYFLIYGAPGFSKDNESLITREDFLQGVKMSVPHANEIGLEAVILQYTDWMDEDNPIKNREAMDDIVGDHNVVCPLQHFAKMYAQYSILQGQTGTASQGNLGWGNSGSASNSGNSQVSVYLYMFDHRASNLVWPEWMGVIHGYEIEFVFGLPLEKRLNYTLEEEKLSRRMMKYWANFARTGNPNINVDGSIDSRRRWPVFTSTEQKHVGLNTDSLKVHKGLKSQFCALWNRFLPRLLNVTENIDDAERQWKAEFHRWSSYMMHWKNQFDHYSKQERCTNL
BChE (E.C. 3.1.1.8), sequence (P81908 whole entry): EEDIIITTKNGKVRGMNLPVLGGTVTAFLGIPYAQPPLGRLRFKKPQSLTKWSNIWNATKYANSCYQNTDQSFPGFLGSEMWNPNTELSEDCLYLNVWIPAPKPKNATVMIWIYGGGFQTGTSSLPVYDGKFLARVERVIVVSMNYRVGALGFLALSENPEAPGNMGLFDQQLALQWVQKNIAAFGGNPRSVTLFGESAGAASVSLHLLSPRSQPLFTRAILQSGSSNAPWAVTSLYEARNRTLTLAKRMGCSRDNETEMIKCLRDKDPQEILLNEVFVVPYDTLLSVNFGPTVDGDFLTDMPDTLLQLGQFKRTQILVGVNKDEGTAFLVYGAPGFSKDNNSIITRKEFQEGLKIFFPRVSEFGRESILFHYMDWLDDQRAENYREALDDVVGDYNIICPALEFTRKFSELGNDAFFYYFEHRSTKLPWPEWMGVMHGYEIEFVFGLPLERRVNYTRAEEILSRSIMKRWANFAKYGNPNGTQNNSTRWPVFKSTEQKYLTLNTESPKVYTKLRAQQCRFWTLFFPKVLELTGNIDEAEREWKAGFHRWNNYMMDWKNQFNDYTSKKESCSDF

For the compound `O=c1c2cc(-c3ccc(F)c(Cl)c3)ccc2nc2n1CCCC2` [4k, 2-(3-Chloro-4-fluorophenyl)-6,7,8,9-tetrahydro-11H-pyrido[2,1-b]quinazolin-11-one], the IC50 against BChE (E.C. 3.1.1.8) and against AChE (E.C. 3.1.1.7) was greater than 50 µM throughout.
`O=c1c2cc(-c3ccc(C(F)(F)F)cc3)ccc2nc2n1CCCC2` [4c, 2-(4-(Trifluoromethyl)phenyl)-6,7,8,9-tetrahydro-11H-pyrido[2,1-b]quinazolin-11-one]: the IC50 on BChE (E.C. 3.1.1.8) and at AChE (E.C. 3.1.1.7) was greater than 50 µM in each case.
As for `CC(C)(C)c1ccc(-c2ccc3nc4n(c(=O)c3c2)CCCC4)cc1` [4e, 2-(4-(tert-Butyl)phenyl)-6,7,8,9-tetrahydro-11H-pyrido[2,1-b]quinazolin-11-one], the IC50 against BChE (E.C. 3.1.1.8) and against AChE (E.C. 3.1.1.7) was greater than 50 µM each time.
Consider `O=c1c2cc(-c3cccc(Cl)c3)ccc2nc2n1CCCC2` [4g, 2-(3-Chlorophenyl)-6,7,8,9-tetrahydro-11H-pyrido[2,1-b]quinazolin-11-one], for which the IC50 was found to be 22.9 ± 0.76 µM against BChE (E.C. 3.1.1.8) and 21.3 ± 0.88 µM against AChE (E.C. 3.1.1.7). Also, the “Selectivity (BChE/AChE)” value at AChE (E.C. 3.1.1.7) is listed as 1.1.
In the case of `O=c1c2cc(-c3cccc4ccccc34)ccc2nc2n1CCCC2` [4m, 2-(Naphthalen-1-yl)-6,7,8,9-tetrahydro-11H-pyrido[2,1-b]quinazolin-11-one], the IC50 against BChE (E.C. 3.1.1.8) and against AChE (E.C. 3.1.1.7) was greater than 50 µM each time.
With `COc1cccc(-c2ccc3nc4n(c(=O)c3c2)CCCC4)c1` [4h, 2-(3-Methoxyphenyl)-6,7,8,9-tetrahydro-11H-pyrido[2,1-b]quinazolin-11-one], the IC50 against BChE (E.C. 3.1.1.8) is 42.3 ± 1.23 µM. In addition, at AChE (E.C. 3.1.1.7), the IC50 came to 42.7 ± 1.8 µM and the “Selectivity (BChE/AChE)” value turned out to be 1.
As to `O=c1c2cc(-c3ccc(F)cc3)ccc2nc2n1CCC2` [3b, 7-(4-Fluorophenyl)-2,3-dihydropyrrolo[2,1-b]quinazolin-9(1H)-one], the IC50 against BChE (E.C. 3.1.1.8) worked out at 15.5 ± 0.41 µM; against AChE (E.C. 3.1.1.7), 34.8 ± 1.21 µM. Further, the “Selectivity (BChE/AChE)” value at AChE (E.C. 3.1.1.7) was determined as 0.5.
Regarding `O=c1c2cc(-c3ccc(C(F)(F)F)cc3)ccc2nc2n1CCC2` [3c, 7-(4-(Trifluoromethyl)phenyl)-2,3-dihydropyrrolo[2,1-b]quinazolin-9(1H)-one], the IC50 at BChE (E.C. 3.1.1.8) and at AChE (E.C. 3.1.1.7) was greater than 50 µM each time.
Regarding `O=c1c2cc(-c3ccccc3C(F)(F)F)ccc2nc2n1CCCC2` [4n, 2-(2-(Trifluoromethyl)phenyl)-6,7,8,9-tetrahydro-11H-pyrido[2,1-b]quinazolin-11-one], the IC50 on BChE (E.C. 3.1.1.8) is 43.2 ± 1.27 µM; at AChE (E.C. 3.1.1.7), greater than 50 µM.
On the same counts, the results for `CC(=O)c1cccc(-c2ccc3nc4n(c(=O)c3c2)CCC4)c1` [3i, 7-(3-Acetylphenyl)-2,3-dihydropyrrolo[2,1-b]quinazolin-9(1H)-one] are greater than 50 µM and 33.2 ± 1.01 µM.
For the compound `O=c1c2cc(-c3ccc(Cl)cc3)ccc2nc2n1CCCC2` [4a, 2-(4-Chlorophenyl)-6,7,8,9-tetrahydro-11H-pyrido[2,1-b]quinazolin-11-one], the IC50 on BChE (E.C. 3.1.1.8) and against AChE (E.C. 3.1.1.7) was greater than 50 µM each time.
As for `O=c1c2cc(-c3ccc(F)c(Cl)c3)ccc2nc2n1CCC2` [3k, 7-(3-Chloro-4-fluorophenyl)-2,3-dihydropyrrolo[2,1-b]quinazolin-9(1H)-one], half-maximal inhibition against BChE (E.C. 3.1.1.8) (IC50) was put at 29 ± 0.74 µM. On AChE (E.C. 3.1.1.7), the IC50 was 6.08 ± 0.26 µM and the “Selectivity (BChE/AChE)” value was determined as 4.8.
As for `COc1cccc(-c2ccc3nc4n(c(=O)c3c2)CCC4)c1` [3h, 7-(3-Methoxyphenyl)-2,3-dihydropyrrolo[2,1-b]quinazolin-9(1H)-one], the IC50 against BChE (E.C. 3.1.1.8) turned out to be 41.8 ± 1.28 µM; against AChE (E.C. 3.1.1.7), 17.7 ± 0.84 µM. Moreover, at AChE (E.C. 3.1.1.7), the “Selectivity (BChE/AChE)” value worked out at 2.4.
Consider `CC(=O)c1cccc(-c2ccc3nc4n(c(=O)c3c2)CCCC4)c1` [4i, 2-(3-Acetylphenyl)-6,7,8,9-tetrahydro-11H-pyrido[2,1-b]quinazolin-11-one], for which the IC50 at BChE (E.C. 3.1.1.8) was greater than 50 µM; against AChE (E.C. 3.1.1.7), 11.1 ± 0.73 µM.
Take `COc1ccc(Cl)cc1-c1ccc2nc3n(c(=O)c2c1)CCC3` [3l, 7-(5-Chloro-2-methoxyphenyl)-2,3-dihydropyrrolo[2,1-b]quinazolin-9(1H)-one]: the IC50 against BChE (E.C. 3.1.1.8) came out at 28.5 ± 0.46 µM. For the same compound, at AChE (E.C. 3.1.1.7), the IC50 stood at 14.7 ± 0.48 µM and the “Selectivity (BChE/AChE)” value worked out at 2.0.
Turning to `O=c1c2cc(-c3cccc4ccccc34)ccc2nc2n1CCC2` [3m, 7-(Naphthalen-1-yl)-2,3-dihydropyrrolo[2,1-b]quinazolin-9(1H)-one], the figures for the IC50 at BChE (E.C. 3.1.1.8) and against AChE (E.C. 3.1.1.7) were 32 ± 0.72 µM and greater than 50 µM, respectively.
On to `O=c1c2cc(-c3ccccc3)ccc2nc2n1CCC2` [3n, 7-Phenyl-2,3-dihydropyrrolo[2,1-b]quinazolin-9(1H)-one], for which inhibition against BChE (E.C. 3.1.1.8) was half-maximal at 22.9 ± 0.57 µM (IC50). In addition, on AChE (E.C. 3.1.1.7), the IC50 was determined as 35.9 ± 1.03 µM and the “Selectivity (BChE/AChE)” value was found to be 0.64.
In the case of `O=c1c2cc(-c3ccc(F)cc3)ccc2nc2n1CCCC2` [4b, 2-(4-Fluorophenyl)-6,7,8,9-tetrahydro-11H-pyrido[2,1-b]quinazolin-11-one], the IC50 on BChE (E.C. 3.1.1.8) was greater than 50 µM; against AChE (E.C. 3.1.1.7), 34.6 ± 1.27 µM.
On the same counts, the results for `COc1ccc(-c2ccc3nc4n(c(=O)c3c2)CCC4)cc1` [3d, 7-(4-Methoxyphenyl)-2,3-dihydropyrrolo[2,1-b]quinazolin-9(1H)-one] are greater than 50 µM and 16.2 ± 0.39 µM.
At BChE (E.C. 3.1.1.8), `O=c1c2cc(-c3cccc(Cl)c3)ccc2nc2n1CCC2` [3g, 7-(3-Chlorophenyl)-2,3-dihydropyrrolo[2,1-b]quinazolin-9(1H)-one] showed an IC50 of 22.2 ± 0.48 µM. Moreover, at AChE (E.C. 3.1.1.7), 27.9 ± 0.72 µM corresponded to half-maximal inhibition (IC50) and the “Selectivity (BChE/AChE)” value turned out to be 0.8.
On the same counts, the results for `Cc1cccc(-c2ccc3nc4n(c(=O)c3c2)CCC4)c1` [3f, 7-(m-Tolyl)-2,3-dihydropyrrolo[2,1-b]quinazolin-9(1H)-one] are 22.8 ± 0.49 µM, 28.7 ± 0.69 µM and 0.8.
In turn, `Cc1cccc(-c2ccc3nc4n(c(=O)c3c2)CCCC4)c1` [4f, 2-(m-Tolyl)-6,7,8,9-tetrahydro-11H-pyrido[2,1-b]quinazolin-11-one] gave an IC50 against BChE (E.C. 3.1.1.8) of 10.7 ± 0.64 µM. Also, at AChE (E.C. 3.1.1.7), the midpoint of inhibition, the IC50, lay at 6.39 ± 0.31 µM and the “Selectivity (BChE/AChE)” value is reported as 1.7. For the same compound, the “solubility in common organic solvents” value in series [1] was “poor solubility”.
In the case of `COc1ccc(-c2ccc3nc4n(c(=O)c3c2)CCCC4)cc1` [4d, 2-(4-Methoxyphenyl)-6,7,8,9-tetrahydro-11H-pyrido[2,1-b]quinazolin-11-one], the results for the IC50 against BChE (E.C. 3.1.1.8) and on AChE (E.C. 3.1.1.7) were greater than 50 µM and 33.2 ± 1.08 µM, respectively.
The like results for `CC(C)(C)c1ccc(-c2ccc3nc4n(c(=O)c3c2)CCC4)cc1` [3e, 7-(4-(tert-Butyl)phenyl)-2,3-dihydropyrrolo[2,1-b]quinazolin-9(1H)-one] were, in that order, greater than 50 µM and greater than 50 µM.
For `Cc1ccccc1-c1ccc2nc3n(c(=O)c2c1)CCC3` [3j, 7-(o-Tolyl)-2,3-dihydropyrrolo[2,1-b]quinazolin-9(1H)-one], the IC50 at BChE (E.C. 3.1.1.8) is 11.1 ± 0.37 µM; on AChE (E.C. 3.1.1.7), greater than 50 µM.
Regarding `COc1ccc(Cl)cc1-c1ccc2nc3n(c(=O)c2c1)CCCC3` [4l, 2-(5-Chloro-2-methoxyphenyl)-6,7,8,9-tetrahydro-11H-pyrido[2,1-b]quinazolin-11-one], the values for the IC50 against BChE (E.C. 3.1.1.8) and at AChE (E.C. 3.1.1.7) were 46.6 ± 1.45 µM and greater than 50 µM, respectively.
`O=c1c2cc(-c3ccc(Cl)cc3)ccc2nc2n1CCC2` [3a, 7-(4-Chlorophenyl)-2,3-dihydropyrrolo[2,1-b]quinazolin-9(1H)-one]: the IC50 against BChE (E.C. 3.1.1.8) and on AChE (E.C. 3.1.1.7) was greater than 50 µM throughout.
Consider `Cc1ccccc1-c1ccc2nc3n(c(=O)c2c1)CCCC3` [4j, 2-(o-Tolyl)-6,7,8,9-tetrahydro-11H-pyrido[2,1-b]quinazolin-11-one], for which the IC50 against BChE (E.C. 3.1.1.8) and at AChE (E.C. 3.1.1.7) was greater than 50 µM each time.
